Source: patent publication EP4255430B1, “8-HYDROX[…] PROTEASE INHIBITORS FOR USE IN THE PREVENTION AND/OR TREATMENT OF A CORONA VIRUS DISEASE” (Univerza v Ljubljani, priority 2020, dated 2022)

Tested on: SARS-CoV-2
Assay: High Content Assay: antiviral activity against SARS-CoV-2 in infected Huh7-hACE2 cells (Spike immunofluorescence, infection ratio)
Details: for EC50 / EC90: Huh7-hACE2 cells, 0.1 MOI, 20 h; for % of inhibition reached (maximal), based on infection ratio values: within tested concentration range, normalized to 50 µM hydroxychloroquine = 100%; for activity against SARS-CoV-2 in Huh7-hACE2 cells (comparison between inhibitors): qualitative ranking; for EC90: read-out: EC90, the effective concentration capable to inhibit 90% of infection, follows the pre-treated values
[1] = treatment condition not restated in the sentence (follows the pre-treated values)
[2] = pre-treated conditions (compounds added 3 hours prior infection)

`CC(C)C[C@H](NC(=O)[C@H]1O[C@@H]1C(=O)O)C(=O)NCCCCN=C(N)N` (relative stereo) [Compound E64] was tested, and the EC50 [1] was “higher concentrations” and the “% of inhibition reached (maximal), based on infection ratio values” was under 100%.
For `CN(C)C(=O)[C@H](Cc1ccccc1)NC(=O)C1OC1C(=O)NCCc1ccccn1` (stereo in doubt) [CLIK 148, N-{L-3-trans-[2-(pyridin-2-yl)ethylcarbamoyl]-oxirane-2-carbonyl}-L-Phe dimethylamide], the EC50 [1] was “higher concentrations” and the “% of inhibition reached (maximal), based on infection ratio values” was under 100%.
`CC1CCN(Cc2cc([N+](=O)[O-])c3cccnc3c2O)CC1` [Compound 3, 7-[(4-methylpiperidin-1yl)methyl]-5-nitroquinolin-8-ol] was tested, and the “activity against SARS-CoV-2 in Huh7-hACE2 cells (comparison between inhibitors)” value (shortened to “activity … (comparison between inhibitors)”) was “stronger effect than CLIK 148, but weaker than Nitroxoline and Compound 17”, the EC90 was 10 µM and the “% of inhibition reached (maximal), based on infection ratio values” was 100%.
`N#CCNCc1cc([N+](=O)[O-])c2cccnc2c1O` [Compound 17, 2-{[(8-hydroxy-5-nitroquinoline-7-yl)methyl]amino}-acetonitrile] was tested, and the EC50 [2] was 1900 nM, the “activity … (comparison between inhibitors)” value was “highest activity” and the EC90 was 3.3 µM. The “% of inhibition reached (maximal), based on infection ratio values” was 100%.
In the case of `CCOC(=O)[C@H]1O[C@@H]1C(=O)N[C@@H](CC(C)C)C(=O)NCCC(C)C` [Compound E64d, (2S,3S)-trans-Epoxysuccinyl-L-leucylamido-3-methylbutane ethyl ester], the “% of inhibition reached (maximal), based on infection ratio values” is reported as under 100%.
With `O=[N+]([O-])c1ccc(O)c2ncccc12` [Nitroxoline, 5-nitro-8-hydroxyquinoline] the EC50 [2] was 1900 nM, the “activity … (comparison between inhibitors)” value was “highest activity” and the EC90 was 7.9 µM. For the same compound, the “% of inhibition reached (maximal), based on infection ratio values” was 100%.
